Data reported in patent publication US9238650B2, “Solid forms of a pyrido-pyrimidinium inner salt” (E. I. DU PONT DE NEMOURS AND COMPANY, priority 2012, dated 2016).
Entries after “also recorded” stand apart in the source; their conditions may differ. Counter-ions that a name gives are not always drawn.

Experiments:
Assay type in all cases: physicochemical
[1] = Crystal density by helium gas pygnometry
Text: However, once Form B has converted to Form A in the slurry, the particles start to settle to the bottom of the flask rapidly after stirring is turned off indicating increased particle size of the Form A crystals. […] High particle size and settling velocities are important process advantages for solid-liquid separation operations in commercial manufacturing. Large average particle size improve filtration and centrifugation steps by increased filtration speeds, higher throughputs, lower propensity to filter cake cracking and resulting filtrate by-passing, increased cake wash efficiency and increased product purity.

[2] = Solid-liquid separation efficiency: time to complete filtration on a lab nutsche filter; details: for Filtration time: time required to complete filtration of 90 g from reaction mass
Description: In separate experiments, about 90 grams of Polymorph Forms A and B of Compound 1 were prepared according to PREPARATION EXAMPLE 1 and 2, respectively. The solids were filtered from their reaction mass using a lab nutsche filter. The times to complete the filtrations (indicated by no further liquid dripping from the filter) were measured and are reported in Table 12.

[3] = Temperature-dependent X-ray powder diffraction of polymorph Form A; details: pure solid, heated from 25° C. to the melting point at 10° C. per minute
Description: To assess the stability of polymorph Form A of Compound 1 with respect to temperature, X-ray powder diffraction patterns were obtained while heating a sample of Form A from 25° C. to above its melting point. The measurement was conducted at the 5-IDD beam line at the Advanced Photon Source synchrotron located at the Argonne National Laboratory (Argonne, Ill., USA). A Differential-Scanning calorimeter (DSC, Model DSC600, Linkam Scientific Instruments, Tadworth, U.K.) was mounted in vertical orientation to allow insertion of the DSC into the X-ray beam. The DSC was positioned in the beam line to accept a 100-200 μm square beam under high vacuum. The standard quartz window was replaced with polyimide film (Kapton®, 8 μm thickness, DuPont, Wilmington, Del., USA). An internal thermocouple was installed for temperature recording. A circular charged couple device (CCD) detector (Model Mar165, 165 mm diameter, Marresearch GmbH, Norderstedt, Germany) was used to detect the X-rays scattered from the sample. The detector was equipped with an aluminum cone that covered the detector and extended 100 mm from the face of the detector. This cone was quipped with a beam stop support and 5×3 mm lead beam stop. The cone was continuously purged with helium to minimize air scattering. […]

[4] = Particle size distribution by laser diffraction particle size analyzer after dispersion in deionized water; details: dispersed in deionized water; for D50: median particle size; for D[4, 3]: volume-weighted mean particle size
Description: After the observation of increased settling velocity of Polymorph Form A compared to Form B (see CHARACTERIZATION EXAMPLE 9), the particle size distributions of the two forms were measured. Form B of Compound 1 was prepared according to PREPARATION EXAMPLE 2. Some of the Form B thus prepared was converted to Form A according to PREPARATION EXAMPLE 5. The particle size distribution of both Form A and B samples were determined after dispersion in deionized water using a laser diffraction particle size analyzer (model Mastersizer 2000 by Malvern Instruments, Malvern, UK). The particle size distribution parameters D10, D50 and D90 are reported in Table 13 below, wherein D50 represents the median particle size of the distribution, i.e. 50% of the particles are smaller and 50% are larger than that size. D10 indicates the particle size at which 10% of all particles are smaller than that size. Similarly, D90 indicates the particle size at which 90% of all particles are smaller than that size. The volume-weighted mean particle sizes D[4,3] are also reported.

[5] = Relative stability (non-competitive and competitive interconversion) of polymorph Forms A and B in various solvents at 22° C., solids analyzed by pXRD; details: concluded from conversion of Form B to Form A in solvents at 22° C.
Description: (§1) Polymorph Forms A and B of Compound 1 were subjected to non-competitive and competitive interconversion experiments. […] For the competitive experiments, polymorph Forms A and B were mixed together and studied for the potential conversion to the more thermodynamically stable form. The starting polymorph form(s) were mixed with various solvents for 5 days at 22° C., and then filtered. The filtrate was analyzed by HPLC to determine the solubility of Compound 1 in the test solvent. The solids were dried and analyzed by pXRD.
A detailed description of the individual experiments for Examples 6a to 6j is given below.
In Example 6a, Form B of Compound 1 (0.3 g) was mixed with acetone (5 g) at 22° C. for 5 days. The slurry was then filtered through a syringe filter (0.45 μm glass fiber, type Whatman GE Autovial) and dried in a vacuum oven at 40° C. for 48 hours. Analysis by pXRD indicated Form A of compound 1.
In Example 6b, Form B (0.3 g) and Form A (0.01 g) of Compound 1 were mixed with acetone (5 g) at 22° C. for 5 days. The slurry was then filtered through a syringe filter (0.45 μm glass fiber, type Whatman GE Autovial) and dried in a vacuum oven at 40° C. for 48 hours. Analysis by pXRD indicated Form A of Compound 1.
In Example 6c, Form B (0.3 g) of Compound 1 was mixed with tetrahydrofuran (5 g) at 22° C. for 5 days. […]

[6] = Solubility of Compound 1 in the test solvent, filtrate analyzed by HPLC; details: 22° C., 5 days, label = starting polymorph form(s)
Description: HPLC was used to determine the purity of Compound 1 and intermediates. An Agilent 1100/1200 series HPLC system with DAD/UV detector and reverse-phase column (Agilent Zorbax® SB C8 (4.6×150) mm, 3.5 μm, Part No. 863953-906) was used. Flow rate was 1 mL/min, run time 27 min, injection volume 3.0 μL, and the column oven temperature was 40° C. A mobile phase gradient according to Table 1 was used wherein mobile phase A was 0.03% by volume orthophosphoric acid and mobile Phase B was acetonitrile (HPLC grade). Mobile phase A was prepared by thoroughly mixing 0.3 mL of orthophosphoric acid (AR grade) with 999.7 mL of deionized water. Standard solutions were prepared by weighing 22.0±2.0 mg of the analytical standard in duplicate into separate 50-mL volumetric flasks, dissolving and diluting with the diluent. Samples were prepared by weighing 40.0±2.0 mg of the sample into a 100 mL standard volumetric flask, dissolving and diluting with the diluent. For analysis, the HPLC system and column were equilibrated with initial mobile phase. In the chromatographic sequence, blank samples, standard samples and test samples were run. The retention time for Compound 1 was about 22.2 min. Peaks appearing in the blank sample were not integrated, all other peaks were integrated and a % purity reported from the sample chromatogram. For wt % determination the concentration of test sample was calibrated against the standard sample.
as §1

## Cc1cccn2c(=O)c(-c3cc(Cl)cc(Cl)c3)c([O-])[n+](Cc3cnc(Cl)s3)c12 [Form A, 1-[(2-chloro-5-thiazolyl)methyl]-3-(3,5-dichlorophenyl)-2-hydroxy-9-methyl-4-oxo-4H-pyrido[1,2-a]pyrimidinium inner salt]
[1]
  density: 1.597 g/mL
[2]
  Filtration time: 0.9 min
[3]
  Stability of the crystal form with respect to temperature (pXRD while heating): no crystal form conversion to another polymorph occurred; also recorded: physically and chemically stable in its pure solid form
[4]
  D10: 13 μm
  D90: 73 μm
  D50: 34 μm
  D[4, 3]: 39 μm
[5]
  Relative thermodynamic stability: more thermodynamically stable than Form B

## Cc1cccn2c(=O)c(-c3cc(Cl)cc(Cl)c3)c([O-])[n+](Cc3cnc(Cl)s3)c12 [B + seed A, 1-[(2-chloro-5-thiazolyl)methyl]-3-(3,5-dichlorophenyl)-2-hydroxy-9-methyl-4-oxo-4H-pyrido[1,2-a]pyrimidinium inner salt]
[6]; acetone
  Concentration of Compound 1 in filtrate: 0.34 wt %
[6]; ethyl acetate
  Concentration of Compound 1 in filtrate: 0.09 wt %
[6]; tetrahydrofuran
  Concentration of Compound 1 in filtrate: 1.01 wt %
[6]; toluene
  Concentration of Compound 1 in filtrate: 0.023 wt %
[6]; water
  Concentration of Compound 1 in filtrate: <0.01 wt %

## Cc1cccn2c(=O)c(-c3cc(Cl)cc(Cl)c3)c([O-])[n+](Cc3cnc(Cl)s3)c12 [Form B, 1-[(2-chloro-5-thiazolyl)methyl]-3-(3,5-dichlorophenyl)-2-hydroxy-9-methyl-4-oxo-4H-pyrido[1,2-a]pyrimidinium inner salt]
[1]
  density: 1.582 g/mL
[2]; about 90 grams
  Filtration time relative to Polymorph Form A: more than 3 times
[2]
  Filtration time: 3.0 min
[4]
  D10: 0.6 μm
  D90: 19 μm
  D50: 3.2 μm
  D[4, 3]: 6.8 μm
[6]; acetone
  Concentration of Compound 1 in filtrate: 0.34 wt %
[6]; ethyl acetate
  Concentration of Compound 1 in filtrate: 0.18 wt %
[6]; tetrahydrofuran
  Concentration of Compound 1 in filtrate: 1.03 wt %
[6]; toluene
  Concentration of Compound 1 in filtrate: 0.049 wt %
[6]; water
  Concentration of Compound 1 in filtrate: <0.01 wt %
